# Results taken from ChEMBL document CHEMBL6182889, “Discovery of the first-in-class DOT1L PROTAC degrader” (Eur J Med Chem, 2025).
# Calls of active or inactive are those of the source. The calls are words filed in the database; no cut-off is given here.
# Key:
# [1] = target: T1, von Hippel-Lindau disease tumor suppressor/Histone-lysine N-methyltransferase, H3 lysine-79 specific (Homo sapiens, UniProt Q8TEK3+P40337); assay: PROTAC activity at VHL/DOTIL in mixed-lineage leukemia rearranged (MLL-r) human THP-1 cells assessed as induction of DOT1L degradation by measuring fold change in DOTIL protein level at 0.3 uM incubated for 24 hrs by western blot analysis relative to control; type: cell-based
# [2] = target: T1, von Hippel-Lindau disease tumor suppressor/Histone-lysine N-methyltransferase, H3 lysine-79 specific; assay: PROTAC activity at VHL/DOTIL in mixed-lineage leukemia rearranged (MLL-r) human THP-1 cells assessed as induction of DOT1L degradation by measuring fold change in DOTIL protein level at 3 uM incubated for 24 hrs by western blot analysis relative to control; type: cell-based
# [3] = target: Histone-lysine N-methyltransferase, H3 lysine-79 specific (Homo sapiens) (UniProt Q8TEK3); assay: Inhibition of human DOT1L using oligonucleosomes and SAM as substrate at 4.6 nM by radiometric Hotspot assay
# MV4-11 = assay: Antiproliferative activity against mixed-lineage leukemia rearranged (MLL-r) human MV4-11 cells assessed as inhibition of cell growth incubated for 7 days by CCK-8 assay; type: functional; conditions: time 7.0 day
# MOLM-13 = assay: Antiproliferative activity against mixed-lineage leukemia rearranged (MLL-r) human MOLM-13 cells assessed as inhibition of cell growth incubated for 7 days by CCK-8 assay; type: functional, cell-based; conditions: time 7.0 day
# [4] = target: Histone-lysine N-methyltransferase, H3 lysine-79 specific (Homo sapiens) (UniProt Q8TEK3); assay: Inhibition of human DOT1L using oligonucleosomes and SAM as substrate at 1.1 to 3.3 uM by radiometric Hotspot assay; conditions: dose 1.1-3.3 µM
# T1 sequence (P40337 whole entry, looked up): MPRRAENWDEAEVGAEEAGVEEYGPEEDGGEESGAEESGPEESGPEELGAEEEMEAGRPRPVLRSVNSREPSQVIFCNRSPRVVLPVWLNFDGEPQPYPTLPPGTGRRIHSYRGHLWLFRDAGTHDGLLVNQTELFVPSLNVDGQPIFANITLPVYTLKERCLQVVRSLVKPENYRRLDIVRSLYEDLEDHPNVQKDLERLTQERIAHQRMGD
# T1 sequence (Q8TEK3 whole entry, looked up): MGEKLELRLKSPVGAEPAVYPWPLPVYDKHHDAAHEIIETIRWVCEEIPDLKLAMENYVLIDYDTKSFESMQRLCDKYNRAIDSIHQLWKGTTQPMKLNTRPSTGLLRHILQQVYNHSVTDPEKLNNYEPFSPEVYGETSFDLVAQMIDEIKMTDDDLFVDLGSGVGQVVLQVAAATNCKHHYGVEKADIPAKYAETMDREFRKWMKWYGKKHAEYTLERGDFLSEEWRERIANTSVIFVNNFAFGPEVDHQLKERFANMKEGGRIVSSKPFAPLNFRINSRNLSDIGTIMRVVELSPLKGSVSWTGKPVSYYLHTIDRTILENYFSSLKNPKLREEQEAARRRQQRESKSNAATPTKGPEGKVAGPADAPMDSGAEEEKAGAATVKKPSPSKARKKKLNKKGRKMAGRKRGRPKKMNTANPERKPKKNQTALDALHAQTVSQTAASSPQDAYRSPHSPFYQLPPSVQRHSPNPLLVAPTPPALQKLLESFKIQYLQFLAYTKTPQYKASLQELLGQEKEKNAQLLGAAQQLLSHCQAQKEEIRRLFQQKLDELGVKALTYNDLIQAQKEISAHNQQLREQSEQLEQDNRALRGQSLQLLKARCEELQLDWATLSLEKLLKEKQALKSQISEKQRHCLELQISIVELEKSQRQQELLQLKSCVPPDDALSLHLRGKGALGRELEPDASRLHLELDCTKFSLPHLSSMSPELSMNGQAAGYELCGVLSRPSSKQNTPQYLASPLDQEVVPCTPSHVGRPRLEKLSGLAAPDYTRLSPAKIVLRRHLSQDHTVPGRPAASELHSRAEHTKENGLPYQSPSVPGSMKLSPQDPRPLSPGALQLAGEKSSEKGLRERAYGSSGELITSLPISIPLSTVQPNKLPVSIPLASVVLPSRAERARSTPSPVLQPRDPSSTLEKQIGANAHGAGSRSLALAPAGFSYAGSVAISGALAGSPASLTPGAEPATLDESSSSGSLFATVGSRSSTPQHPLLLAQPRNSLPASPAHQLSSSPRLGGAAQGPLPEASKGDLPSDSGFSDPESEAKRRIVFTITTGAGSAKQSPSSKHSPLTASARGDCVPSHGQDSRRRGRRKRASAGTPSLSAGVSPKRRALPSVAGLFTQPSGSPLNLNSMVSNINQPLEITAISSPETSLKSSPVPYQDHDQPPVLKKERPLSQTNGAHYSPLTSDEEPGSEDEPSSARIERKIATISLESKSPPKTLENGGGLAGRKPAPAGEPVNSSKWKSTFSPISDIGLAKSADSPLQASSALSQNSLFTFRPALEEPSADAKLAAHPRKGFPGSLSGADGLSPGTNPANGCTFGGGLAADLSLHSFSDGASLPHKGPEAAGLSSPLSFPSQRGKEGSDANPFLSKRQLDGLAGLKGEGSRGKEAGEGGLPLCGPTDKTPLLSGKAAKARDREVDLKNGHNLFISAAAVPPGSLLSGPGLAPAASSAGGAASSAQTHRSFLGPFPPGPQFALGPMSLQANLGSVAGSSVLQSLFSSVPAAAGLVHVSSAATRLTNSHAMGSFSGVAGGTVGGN
# Sequence of Histone-lysine N-methyltransferase, H3 lysine-79 specific (Homo sapiens) (Q8TEK3 whole entry, looked up): as above
smiles,measurement,setting,value
Cc1ncsc1-c1ccc([C@H](CC(=O)NCCCCCCCCNC(=O)COc2nc(N)nc(Nc3cc(S(N)(=O)=O)ccc3N[C@@H](c3cccc4c3OC(F)(F)O4)c3ncccc3Cl)n2)NC(=O)[C@@H]2C[C@@H](O)CN2C(=O)[C@@H](NC(=O)C2(F)CC2)C(C)(C)C)cc1,fold change (FC),[1],0.52
same,fold change (FC),[2],0.56
Cc1ncsc1-c1ccc([C@H](CC(=O)NCCNC(=O)COc2nc(N)nc(Nc3cc(S(N)(=O)=O)ccc3N[C@@H](c3cccc4c3OC(F)(F)O4)c3ncccc3Cl)n2)NC(=O)[C@@H]2C[C@@H](O)CN2C(=O)[C@@H](NC(=O)C2(F)CC2)C(C)(C)C)cc1,fold change (FC),[1],0.83
same,fold change (FC),[2],0.55
Cc1ncsc1-c1ccc([C@H](CC(=O)NCCCNC(=O)COc2nc(N)nc(Nc3cc(S(N)(=O)=O)ccc3N[C@@H](c3cccc4c3OC(F)(F)O4)c3ncccc3Cl)n2)NC(=O)[C@@H]2C[C@@H](O)CN2C(=O)[C@@H](NC(=O)C2(F)CC2)C(C)(C)C)cc1,fold change (FC),[1],0.72
same,fold change (FC),[2],0.28
Cc1ncsc1-c1ccc(CNC(=O)[C@@H]2C[C@@H](O)CN2C(=O)[C@@H](NC(=O)CCNC(=O)COc2nc(N)nc(Nc3cc(S(N)(=O)=O)ccc3N[C@@H](c3cccc4c3OC(F)(F)O4)c3ncccc3Cl)n2)C(C)(C)C)cc1,fold change (FC),[1],0.82
same,fold change (FC),[2],0.95
Cc1ncsc1-c1ccc([C@H](CC(=O)NCCCCCCNC(=O)COc2nc(N)nc(Nc3cc(S(N)(=O)=O)ccc3N[C@@H](c3cccc4c3OC(F)(F)O4)c3ncccc3Cl)n2)NC(=O)[C@@H]2C[C@H](O)CN2C(=O)[C@@H](NC(=O)C2(F)CC2)C(C)(C)C)cc1,inhibition,[3],> 95%
same,fold change (FC),[1],0.99
same,Activity,MV4-11,Active
same,fold change (FC),[2],1.05
same,Activity,MOLM-13,inactive
Cc1ncsc1-c1ccc([C@H](CC(=O)NCCCCCNC(=O)COc2nc(N)nc(Nc3cc(S(N)(=O)=O)ccc3N[C@@H](c3cccc4c3OC(F)(F)O4)c3ncccc3Cl)n2)NC(=O)[C@@H]2C[C@@H](O)CN2C(=O)[C@@H](NC(=O)C2(F)CC2)C(C)(C)C)cc1,fold change (FC),[1],0.9
same,fold change (FC),[2],0.36
Cc1ncsc1-c1ccc([C@H](CC(=O)NCCCCNC(=O)COc2nc(N)nc(Nc3cc(S(N)(=O)=O)ccc3N[C@@H](c3cccc4c3OC(F)(F)O4)c3ncccc3Cl)n2)NC(=O)[C@@H]2C[C@@H](O)CN2C(=O)[C@@H](NC(=O)C2(F)CC2)C(C)(C)C)cc1,fold change (FC),[1],0.58
same,fold change (FC),[2],0.6
Cc1ncsc1-c1ccc(CNC(=O)[C@@H]2C[C@@H](O)CN2C(=O)[C@@H](NC(=O)CCCNC(=O)COc2nc(N)nc(Nc3cc(S(N)(=O)=O)ccc3N[C@@H](c3cccc4c3OC(F)(F)O4)c3ncccc3Cl)n2)C(C)(C)C)cc1,fold change (FC),[1],0.99
same,fold change (FC),[2],1.2
Cc1ncsc1-c1ccc(CNC(=O)[C@@H]2C[C@@H](O)CN2C(=O)[C@@H](NC(=O)CCCCCCCNC(=O)COc2nc(N)nc(Nc3cc(S(N)(=O)=O)ccc3N[C@@H](c3cccc4c3OC(F)(F)O4)c3ncccc3Cl)n2)C(C)(C)C)cc1,fold change (FC),[1],1.01
same,fold change (FC),[2],0.83
Cc1ncsc1-c1ccc(CNC(=O)[C@@H]2C[C@@H](O)CN2C(=O)[C@@H](NC(=O)CCCCCNC(=O)COc2nc(N)nc(Nc3cc(S(N)(=O)=O)ccc3N[C@@H](c3cccc4c3OC(F)(F)O4)c3ncccc3Cl)n2)C(C)(C)C)cc1,fold change (FC),[1],1.52
same,fold change (FC),[2],1.11
CC(C)N(C[C@H]1O[C@@H](n2cnc3c(N)ncnc32)[C@H](O)[C@@H]1O)[C@H]1C[C@@H](CCc2nc3cc(C(C)(C)C)ccc3[nH]2)C1,fold change (FC),[1],1.07
same,fold change (FC),[2],1.03
same,Activity,MOLM-13,Active; Reduced Potency In Molm-13 Cells Relative To Mv4-11 Cells Observed
"CC(=O)Nc1nc(Nc2cc(S(=O)(=O)NC(C)=O)ccc2N(C(C)=O)[C@@H](c2cccc3c2OC(F)(F)O3)c2ncccc2Cl)nc(OCC(=O)NCCCCCCNC(=O)C[C@H](NC(=O)C2CC(O)CN2C(=O)[C@@H](NC(=O)C2(F)CC2)C(C)(C)C)c2ccc(-c3scnc3C)cc2)n1 (single isomer, unassigned)",inhibition,[4],> 50%
same,fold change (FC),[1],1.1
same,Activity,MV4-11,inactive
same,fold change (FC),[2],1.11
same,Activity,MOLM-13,inactive
Cc1ncsc1-c1ccc(CNC(=O)[C@@H]2C[C@@H](O)CN2C(=O)[C@@H](NC(=O)CCCCCCNC(=O)COc2nc(N)nc(Nc3cc(S(N)(=O)=O)ccc3N[C@@H](c3cccc4c3OC(F)(F)O4)c3ncccc3Cl)n2)C(C)(C)C)cc1,fold change (FC),[1],0.99
same,fold change (FC),[2],1.17
COc1nc(N)nc(Nc2cc(S(N)(=O)=O)ccc2N[C@@H](c2cccc3c2OC(F)(F)O3)c2ncccc2Cl)n1,fold change (FC),[1],1.29
same,fold change (FC),[2],1.57
same,Activity,MOLM-13,Active; Reduced Potency In Molm-13 Cells Relative To Mv4-11 Cells Observed
Cc1ncsc1-c1ccc([C@H](CC(=O)NCCCCCCCNC(=O)COc2nc(N)nc(Nc3cc(S(N)(=O)=O)ccc3N[C@@H](c3cccc4c3OC(F)(F)O4)c3ncccc3Cl)n2)NC(=O)[C@@H]2C[C@@H](O)CN2C(=O)[C@@H](NC(=O)C2(F)CC2)C(C)(C)C)cc1,fold change (FC),[1],0.36
same,fold change (FC),[2],0.33
Cc1ncsc1-c1ccc(CNC(=O)[C@@H]2C[C@@H](O)CN2C(=O)[C@@H](NC(=O)CCCCNC(=O)COc2nc(N)nc(Nc3cc(S(N)(=O)=O)ccc3N[C@@H](c3cccc4c3OC(F)(F)O4)c3ncccc3Cl)n2)C(C)(C)C)cc1,fold change (FC),[1],0.99
same,fold change (FC),[2],1.17
